According to ChEMBL document CHEMBL1156829 (Proc Natl Acad Sci U S A, 2008):

Columns and labels:
Plasmodium falciparum [1] = assay: NOVARTIS: Inhibition of Plasmodium falciparum 3D7 (drug-susceptible) proliferation in erythrocyte-based infection assay; type: functional, organism-based; conditions: Plasmodium falciparum, 3D7
Plasmodium falciparum [2] = assay: NOVARTIS: Inhibition of Plasmodium falciparum W2 (drug-resistant) proliferation in erythrocyte-based infection assay; type: functional, organism-based; conditions: Plasmodium falciparum, W2; read-out: EC50
[3] = NOVARTIS: Cytotoxicity against human hepatocellular carcinoma cell line (Huh7); type: toxicity, cell-based, Huh-7; conditions: Huh7 cells (hepatocellular carcinoma cell line)

| Compound | EC50 (Plasmodium falciparum [1]) | EC50 (Plasmodium falciparum [2]) | CC50 [3] |
| --- | --- | --- | --- |
| COc1ccc(C=NNc2nc(O)cc(-c3ccccc3)n2)cc1OC | 632 nM | > 1100 nM | > 10000 nM |
| COc1ccc(C2=C(c3ccc(OC)cc3)C3(c4ccccc4)C(=O)C2(c2ccccc2)C2C(=O)N(c4ccccc4)C(=O)C23)cc1 (centres undefined) | 1400 nM | > 1130 nM | > 10000 nM |
| CC1CC2CCC(O2)C(C)C(=O)O[C@H](C)CC2CCC(O2)C(C)C(=O)OC(C)CC2CCC(O2)C(C)C(=O)O[C@H](C)CC2CCC(O2)C(C)C(=O)O1 (some centres undefined) | 645 nM | 699 nM | > 6250 nM |
| Cc1ccc(CC(=O)Nc2ccc(I)cc2)cc1 | > 11200 nM | > 11200 nM | > 100000 nM |
| COc1ccc(Cn2c(=S)[nH]c3ccsc3c2=O)cc1 | > 1430 nM | 1100 nM | > 10000 nM |
| CCN1CCCC1CNC(=O)CN1N=C(c2ccccc2)Cn2c(cc3ccccc32)C1=O (centres undefined) | > 1250 nM | > 1130 nM | > 10000 nM |
| COc1ccc(CC(=O)Nc2sc3c(c2C(=O)Nc2cccc4ccccc24)CCCC3)cc1 | > 1250 nM | 1130 nM | > 10000 nM |
| CCC(C)(C)c1ccc(Oc2ccc(NC(=O)c3ccc([N+](=O)[O-])o3)cc2)cc1 | 7670 nM | 6510 nM | 57600 nM |
| COc1ccc(-n2nc(C(=O)NCC(=O)Nc3nc4ccccc4s3)c3ccccc3c2=O)cc1Cl | > 1250 nM | > 1130 nM | > 10000 nM |
| Cc1cc(C)nc(SCc2cc(=O)c(OC(=O)c3ccccc3Br)co2)n1 | > 11200 nM | > 11200 nM | > 100000 nM |
| O=C(NN=Cc1ccc(O)c(O)c1)/C(=C/c1ccccc1)NC(=O)c1ccccc1 | > 1250 nM | > 1110 nM | > 10000 nM |
| C[n+]1c(C=Cc2ccc(F)cc2)ccc2ccccc21 | 8110 nM | 11100 nM | > 100000 nM |
| O=C(NNC(=O)c1cccc(F)c1)C(=O)N1CCOCC1 | > 1250 nM | > 1110 nM | > 10000 nM |
| c1ccc(-c2cc(N3CCc4ccccc4C3)nc(-c3ccccn3)n2)nc1 | 251 nM | 1110 nM | > 10000 nM |
| COc1ccc(C2c3[nH]c4ccccc4c3C[C@@H]3C(=O)N(CCC(C)C)CC(=O)N23)cc1 (some centres undefined) | > 1250 nM | 1110 nM | > 10000 nM |
| CN(C)c1ccc(/C=C2\C(=O)NC(=O)N(Cc3ccccc3Cl)C2=O)cc1 | > 1250 nM | 1110 nM | > 10000 nM |
| CC[n+]1c(C=C2C=CN(c3ccc(Cl)cc3)C=C2)ccc2ccccc21 | 725 nM | 1090 nM | > 10000 nM |
| C/C=C/C(C(=O)NCCCC)N1C(=O)c2cc(NC(C)=O)ccc2NC(=O)[C@@H]1CCC(=O)O (some centres undefined) | > 1500 nM | 49.9 nM | 442 nM |
| Cc1ccc2cc3cc(C(=O)NC(C)C)sc3nc2c1 | 989 nM | 1120 nM | > 10000 nM |
| COc1ccc(-c2cn(-c3ccc(OC)cc3)c(SCC(=O)Nc3ccccc3)n2)cc1 | > 11200 nM | > 11200 nM | > 100000 nM |
| COC(=O)c1ccccc1NC(=O)CSc1nc2ccsc2c(=O)n1CCN1CCCC1 | > 11200 nM | > 11200 nM | > 100000 nM |
| COc1ccc(OC)c(NC(=O)CSc2nc(NCc3ccc(Cl)cc3)c3ccccc3n2)c1 | > 11200 nM | > 11200 nM | > 100000 nM |
| COc1ccc(/C=C/C(=O)NC(=O)c2ccccc2O)cc1OC | 1080 nM | 1130 nM | > 10000 nM |
| CCCCn1c(NN=C2C(=O)Nc3ccccc32)nc2c1c(=O)[nH]c(=O)n2C | 1600 nM | 1130 nM | > 10000 nM |
| c1ccc(Cc2nc(NCc3ccc4c(c3)OCO4)c3c4c(sc3n2)CCCC4)cc1 | > 1250 nM | > 1130 nM | > 10000 nM |
| CCCCCCn1c2c(c(=N)c3ccccc31)CCC2 | 681 nM | > 1120 nM | > 10000 nM |
| NC(=O)CSc1nnc2ccc(-c3ccc4c(c3)OCO4)nn12 | > 1250 nM | > 1110 nM | > 10000 nM |

| Compound | EC50 (Plasmodium falciparum [1]) | EC50 (Plasmodium falciparum [2]) | CC50 [3] |
| --- | --- | --- | --- |
| CCN(CC)CCCC(C)N(Cc1cccc(OCc2ccccc2)c1)C(=O)NCc1ccccc1 (centres undefined) | > 1250 nM | > 1100 nM | > 10000 nM |
| CCCOc1ccc(Cc2c(C)nc3ccc(Br)cc3c2O)cc1 | 1030 nM | 1100 nM | > 10000 nM |
| OC1(c2ccc(Br)cc2)CCN(C2CCN(CCc3ccccc3)CC2)CC1 | 136 nM | 527 nM | 4770 nM |
| CC(=O)Nc1cccc(N(C(=O)C2COc3ccccc3O2)C(C(=O)NC2CCCCC2)c2ccc(O)cc2)c1 (centres undefined) | > 1250 nM | > 1100 nM | > 10000 nM |
| CCc1n(C)c2ccccc2[n+]1CC(=O)c1ccc(Br)cc1 | 1660 nM | 1100 nM | > 10000 nM |
| O=C(COc1ccc(Cl)cc1)NCc1ccc(CNc2noc3ccccc23)cc1 | 3100 nM | 7290 nM | 66200 nM |
| O=C(c1cc([N+](=O)[O-])cc([N+](=O)[O-])c1)N1CCN(c2cccc(C(F)(F)F)c2)CC1 | 1180 nM | 1100 nM | > 10000 nM |
| Cn1cc([N+](=O)[O-])c(C(=O)NN=Cc2c[nH]c3ccccc23)n1 | 1940 nM | 1100 nM | > 10000 nM |
| CCCCCCN(C(=O)c1ccc2ccccc2c1)C(CC)c1nc2ccccc2c(=O)n1-c1cccc(Cl)c1 (centres undefined) | > 1250 nM | > 1130 nM | > 10000 nM |
| O=C(CCC1CCCN(C(=O)c2ccsc2)C1)N1CCN(c2ccccn2)CC1 (centres undefined) | > 1250 nM | > 1100 nM | > 10000 nM |
| CN1CCCC(CNC(=O)c2cnn(-c3ncc4c(n3)-c3ccccc3SC4)c2C2CC2)C1 (centres undefined) | 976 nM | 1100 nM | > 10000 nM |
| COC(=O)C1CCCCN1S(=O)(=O)c1ccc(C)cc1 (centres undefined) | > 1250 nM | > 1120 nM | > 10000 nM |
| CCCN(CC1CC1)C(=O)C1CCCN(c2cccc3c2C(=O)N(Cc2cc(OC)c(OC)c(OC)c2)C3=O)C1 (centres undefined) | > 1250 nM | 1120 nM | > 10000 nM |
| COc1ccccc1C(c1c(C)n[nH]c1O)c1c(C)n[nH]c1O | > 1250 nM | > 1100 nM | > 10000 nM |
| O=C1N(c2ccccc2)C[C@@H]2C[C@@H](c3ccc4nonc4c3)N3CCC[C@@]123 | 2370 nM | 2500 nM | > 22100 nM |
| COc1cc(OC)cc(C(=O)N2CCN(c3ccccn3)CC2)c1 | > 1250 nM | > 1130 nM | > 10000 nM |
| COc1ccc(N2CCN(C(=O)C3=C(C)C(=O)OC34CCCCC4)CC2)cc1 | 1620 nM | > 1130 nM | > 10000 nM |
| CC(=O)Nc1ccc(-c2nc(-c3ccc(Oc4ccc(-c5[nH]c(-c6ccc(NC(C)=O)cc6)nc5-c5ccccc5)cc4)cc3)c(-c3ccccc3)[nH]2)cc1 | 6950 nM | 5590 nM | 50100 nM |
| O=C(CCCc1nc(-c2ccccc2)no1)NCc1cccnc1 | > 1770 nM | 1130 nM | > 10000 nM |
| CCOC(=O)c1c(NC(=O)CCC(=O)OC)sc2c1CC(C)(C)SC2 | > 650 nM | > 1110 nM | > 10000 nM |
| CC(C)(C)NC(=O)C(c1cccs1)N(CCCN1CCOCC1)C(=O)c1ccc(-c2ccccc2)[nH]1 (centres undefined) | 1230 nM | 1110 nM | > 10000 nM |
| CCOc1ccc(-c2cn3c([n+]2Cc2ccccc2)SCCC3)cc1 | 648 nM | 1090 nM | > 10000 nM |
| Cc1ccc(S(=O)(=O)N=C(NS(=O)(=O)c2ccc(C)cc2)c2ccccc2)cc1 | > 11200 nM | > 11200 nM | > 100000 nM |
| O=C(O)c1ccc(NC(=O)c2ccc(N3C(=O)C4C5C=CC(C5)C4C3=O)cc2)cc1 (centres undefined) | > 11200 nM | > 11200 nM | > 100000 nM |
| N#CC1=C(N)Oc2c3c(c4ccccc4c2C1c1ccc(F)cc1)C(c1ccc(F)cc1)C(C#N)=C(N)O3 (centres undefined) | 4090 nM | 2440 nM | 21600 nM |
| COCCCNC(=O)/C=C/c1ccc(C(C)C)cc1 | 1050 nM | 1490 nM | > 13500 nM |
